Assay results: patent publication US8815535B2, “Disk diffusion assay for oritavancin” (The Medicines Company, priority 2011, dated 2014)
Where two headings read alike, the source gives them in different places.

Tests used:
Assay in all cases: Disk diffusion assay (zone of inhibition)
Format in all cases: cell-based, Staphylococcus aureus
hVISA NRS2 = conditions: Staphylococcus aureus, NRS2, NRS2; for zone of inhibition at 1250 µg/mL: read-out: Inhibition zone diameter
Source text: (§1) The study was designed to identify conditions that improve oritavancin diffusion in agar and consequently yield a zone diameter ≧15 mm for the CLSI quality control strain MSSA ATCC 25923. Excipients that increased the disk diffusion of oritavancin in agar relative to disks containing only oritavancin were identified and selected for further study. […] A prediffusion step at room temperature was introduced to maximize oritavancin diffusion prior to initiation of bacterial growth. In this step, the antimicrobial disks were placed on agar plates seeded with a bacterial isolate and incubated at room temperature for 3 hours. Plates were then incubated overnight at 37° C. Zone diameters around the disks in which bacterial growth was inhibited were measured with a ruler and reported in millimeters.
(§2) Ethanol-sterilized Whatman paper disks (6 mm diameter) were allowed to dry then impregnated with 20 microliters of oritavancin solution containing total amounts ranging from 90 to 360 micrograms. Disks were allowed to dry at room temperature for various times prior to use.
(§3) Bacterial suspensions were prepared and adjusted to an optical density of 0.1 at 600 nm. Standard cation-adjusted Mueller Hinton agar plates (90 mm diameter) were seeded with bacterial suspensions by initially swabbing the center of plate then moving outward towards the edge. The plate was swabbed a second time, perpendicular to the orientation of the first swab. To assess the impact of prediffusion on diameter of inhibition zones, two disks were immediately placed on one half of the plate and the plate was incubated for 3 hours at room temperature. After 3 hours, two additional disks were placed on the other half of the plate then the plate was incubated overnight at 37° C. Zone diameters were measured with a ruler and reported in millimeters.
(§4) Oritavancin powder was dissolved in freshly-prepared solutions of the indicated excipients at concentrations of 0.625, 1.25, 2.5, 5, and 10 mg/ml (adjusted for potency based on lot 875561L00 purity of 83.1%) by vortexing for a minimum of 5 minutes. Oritavancin solutions in the various excipients, while not visually clear, were free from any apparent particulates as assessed visually. Sterile Oxoid blank disks were impregnated with 20 μl of these oritavancin solutions, resulting in oritavancin disk loads ranging from 12.5 to 200 μg. Unless indicated otherwise, disks were allowed to dry overnight at room temperature prior to use.
(§5) Bacterial suspensions from isolated colonies on overnight cation-adjusted Mueller Hinton agar plates were prepared in sterile saline and adjusted to an optical density of 0.1 at 600 nm Standard cation-adjusted Mueller Hinton agar plates (90 mm diameter) were seeded with bacterial suspensions by initially swabbing the center of plate then moving outward. Swabbing was continued at a right angle and then at an oblique angle to the first and second swabs. Disks were placed upon the seeded plates with sterile forceps. Plates were then incubated overnight at 37° C. and inhibition zone diameters were measured with a ruler and reported in millimeters.

VISA NRS3 = conditions: for zone of inhibition at 360 µg/disc: Staphylococcus aureus, 360 μg oritavancin, 3 h prediffusion, average of 2 disks, read-out: Average zone diameter
Source text: as §1, §2, §3, §4, §5

VISA NRS402 = conditions: for zone of inhibition at 360 µg/disc: Staphylococcus aureus
Source text: as §1, §2, §3, §4, §5

MSSA U781969 = conditions: 20 μl of 1.25 mg/ml in 4% P80/Span 80 (1:1), calcium alginate swabs, dried overnight, duplicate
Method: as §4, §5

hVISA NRS36 = conditions: 25 μg (1.25 mg/ml) in 4% P80/Span 80 (1:1), dried overnight
Method: as §4, §5

MRSA U260847 = conditions: 20 μl of 1.25 mg/ml in 4% P80/Span 80 (1:1), calcium alginate swabs, dried overnight, duplicate
Method: as §4, §5

MSSA S815247 = conditions: 20 μl of 1.25 mg/ml in 4% P80/Span 80 (1:1), calcium alginate swabs, dried overnight, duplicate
Method: as §4, §5

MSSA S815246 = conditions: 20 μl of 1.25 mg/ml in 4% P80/Span 80 (1:1), calcium alginate swabs, dried overnight, duplicate
Method: as §4, §5

MRSA Q141067 = conditions: 20 μl of 1.25 mg/ml in 4% P80/Span 80 (1:1), calcium alginate swabs, dried overnight, duplicate
Method: as §4, §5

MRSA Q670505 = conditions: 20 μl of 1.25 mg/ml in 4% P80/Span 80 (1:1), calcium alginate swabs, dried overnight, duplicate
Method: as §4, §5

MSSA T811355 = conditions: 20 μl of 1.25 mg/ml in 4% P80/Span 80 (1:1), calcium alginate swabs, dried overnight, duplicate
Method: as §4, §5

MRSA U933237 = conditions: 20 μl of 1.25 mg/ml in 4% P80/Span 80 (1:1), calcium alginate swabs, dried overnight, duplicate
Method: as §4, §5

[1] = 360 μg in 5% P80, Average of experiments, prediffusion, read-out: Zone diameter (mm ± SD)
[2] = 360 μg in 5% P80, Experiment 1, disks stored 14 days, 3 h prediffusion at room temperature, read-out: Zone diameter (mm ± SD)
[3] = 360 μg in 5% P80, Experiment 2, disks stored 8 days, 3 h prediffusion at room temperature, read-out: Zone diameter (mm ± SD)
[4] = 360 μg oritavancin, excipient 5% P80, disks stored 5 days at room temperature, 3 h prediffusion, average of 2 disks, read-out: Average zone diameter
[5] = 25 μg (1.25 mg/ml) in 4% P80/Span 80 (1:1), dried overnight
[6] = Staphylococcus aureus, MSSA, read-out: Inhibition zone diameter
[7] = Staphylococcus aureus, MRSA, read-out: Inhibition zone diameter

CN[C@H](CC(C)C)C(=O)N[C@H]1C(=O)N[C@@H](CC(N)=O)C(=O)N[C@H]2C(=O)N[C@H]3C(=O)N[C@H](C(=O)N[C@H](C(=O)O)c4cc(O)cc(O)c4-c4cc3ccc4O)[C@H](O[C@H]3C[C@](C)(N)[C@@H](O)[C@H](C)O3)c3ccc(c(Cl)c3)Oc3cc2cc(c3O[C@@H]2O[C@H](CO)[C@@H](O)[C@H](O)[C@H]2O[C@H]2C[C@](C)(NCc3ccc(-c4ccc(Cl)cc4)cc3)[C@@H](O)[C@H](C)O2)Oc2ccc(cc2Cl)[C@H]1O [oritavancin, N-(4-(4-chlorophenyl)benzyl)A82846B]
zone of inhibition at 360 µg/disc (hVISA NRS2; [1]): 17.3 ± 0.3 mm
zone of inhibition at 360 µg/disc (hVISA NRS2; [2]): 17.5 mm
zone of inhibition at 360 µg/disc (hVISA NRS2; [3]): 17 mm
zone of inhibition at 360 µg/disc (hVISA NRS2; [4]): 17.8 mm
zone of inhibition at 1250 µg/mL (hVISA NRS2; 20 μl of 1.25 mg/ml oritavancin in 1% poly(ethylene glycol) sorbitol hexaoleate): 9 mm
zone of inhibition at 1250 µg/mL (hVISA NRS2; 20 μl of 1.25 mg/ml oritavancin in 5% Brij 30): 8 mm
zone of inhibition at 1250 µg/mL (hVISA NRS2; 20 μl of 1.25 mg/ml oritavancin in 5% Merpol SE): 11 mm
Inhibition zone diameter (VISA NRS3; [5]): no zone
zone of inhibition at 360 µg/disc (VISA NRS3; excipient 5% P80, disks stored 5 days at room temperature): 14 mm
zone of inhibition at 360 µg/disc (VISA NRS3; excipient 10% HPCD, disks made same day): 16.8 mm
Inhibition zone diameter (VISA NRS402; [5]): no zone
zone of inhibition at 360 µg/disc (VISA NRS402; 360 μg in 5% P80, Average of experiments, no prediffusion, read-out: Zone diameter (mm ± SD)): 13.1 ± 0.3 mm
zone of inhibition at 360 µg/disc (VISA NRS402; [1]): 14.5 ± 0.4 mm
zone of inhibition at 360 µg/disc (VISA NRS402; [2]): 14.8 ± 0.4 mm
zone of inhibition at 360 µg/disc (VISA NRS402; [3]): 14.3 ± 0.4 mm
zone of inhibition at 360 µg/disc (VISA NRS402; [4]): 14.8 mm
zone of inhibition at 360 µg/disc (VISA NRS402; 3 h, 360 μg oritavancin, excipient 10% HPCD, disks made same day, 3 h prediffusion, average of 2 disks, read-out: Average zone diameter): 17.5 mm
zone of inhibition at 360 µg/disc (VISA NRS402; 192 h, 360 μg in 5% P80, Experiment 2, disks stored 8 days, no prediffusion, read-out: Zone diameter (mm ± SD)): 13 mm
zone of inhibition at 360 µg/disc (VISA NRS402; 336 h, 360 μg in 5% P80, Experiment 1, disks stored 14 days, no prediffusion, read-out: Zone diameter (mm ± SD)): 13.3 ± 0.4 mm
Inhibition zone diameter (MSSA U781969): 23 mm
zone of inhibition at 1250 µg/mL (MSSA U781969; [6]): 22 mm
Inhibition zone diameter (hVISA NRS36; NRS36): 12 mm
zone of inhibition at 25 µg/disc (hVISA NRS36; Staphylococcus aureus, NRS36, read-out: Inhibition zone diameter, NRS36): 11 mm
Inhibition zone diameter (MRSA U260847): 22 mm
zone of inhibition at 1250 µg/mL (MRSA U260847; [7]): 21 mm
Inhibition zone diameter (MSSA S815247): 21 mm
zone of inhibition at 1250 µg/mL (MSSA S815247; [6]): 20 mm
Inhibition zone diameter (MSSA S815246): 22 mm
zone of inhibition at 1250 µg/mL (MSSA S815246; [6]): 21 mm
Inhibition zone diameter (MRSA Q141067): 22 mm
zone of inhibition at 1250 µg/mL (MRSA Q141067; [7]): 21 mm
Inhibition zone diameter (MRSA Q670505): 18, 18 mm
zone of inhibition at 1250 µg/mL (MRSA Q670505; [7]): 18 mm
Inhibition zone diameter (MSSA T811355): 22 mm
zone of inhibition at 1250 µg/mL (MSSA T811355; [6]): 21 mm
Inhibition zone diameter (MRSA U933237): 22 mm
zone of inhibition at 1250 µg/mL (MRSA U933237; [7]): 21 mm
